Test results from ChEMBL document CHEMBL3393030, “Synthesis and properties of vitamin E analog-conjugated neomycin for delivery of RNAi drugs to liver cells” (Bioorg Med Chem Lett, 2015).

Key:
[1] = Binding affinity to self-complementary RNA-12mer duplex (5'-rCGCGAAUUCGCG-3')2 (unknown origin) assessed as melting temperature by […] assay (reference value: 61 degC); conditions: Homo sapiens
[2] = Drug uptake in mouse HePa1-6 cells assessed as red signal with Cy3 conjugate compound; assay type: ADME, cell-based
[3] = system: RH7777; assay: Induction of RNAi activity in rat McA-RH7777 cells by LDLR assay; assay type: cell-based

| Structure (SMILES) | Tm [1] [°C] | Drug uptake [2] | Activity [3] |
| --- | --- | --- | --- |
| CCCCCCCCCCCCCCCCCC(=O)Oc1c(C)c(C)c2c(c1C)CC[C@@](C)(CCCCCCCCCOCc1cn(CCCCCCCCCCCCCCCCSC[C@H]3O[C@@H](O[C@@H]4[C@@H](O)[C@H](N)C[C@H](N)[C@H]4O[C@H]4O[C@H](CN)[C@@H](O)[C@H](O)[C@H]4N)[C@H](O)[C@@H]3O[C@H]3O[C@@H](CN)[C@@H](O)[C@H](O)[C@H]3N)nn1)O2 | 65.6 |  |  |
| CCCCCCCC/C=C/CCCCCCCC(=O)Oc1c(C)c(C)c2c(c1C)CC[C@@](C)(CCCCCCCCCOCc1cn(CCCCCCCCCCCCCCCCSC[C@H]3O[C@@H](O[C@@H]4[C@@H](O)[C@H](N)C[C@H](N)[C@H]4O[C@H]4O[C@H](CN)[C@@H](O)[C@H](O)[C@H]4N)[C@H](O)[C@@H]3O[C@H]3O[C@@H](CN)[C@@H](O)[C@H](O)[C@H]3N)nn1)O2 | 66.8 | Active | Toxic |
| CCCCCCCCCCCCCCCCOC(COC[C@]1(C)CCc2c(C)c(O)c(C)c(C)c2O1)OCc1cn(CCCCCCCCCCCCCCCCSC[C@H]2O[C@@H](O[C@@H]3[C@@H](O)[C@H](N)C[C@H](N)[C@H]3O[C@H]3O[C@H](CN)[C@@H](O)[C@H](O)[C@H]3N)[C@H](O)[C@@H]2O[C@H]2O[C@@H](CN)[C@@H](O)[C@H](O)[C@H]2N)nn1 (stereo partly drawn) | 72.8 | Active | Toxic |
| NC[C@@H]1O[C@H](O[C@H]2[C@@H](O)[C@H](O[C@@H]3[C@@H](O)[C@H](N)C[C@H](N)[C@H]3O[C@H]3O[C@H](CN)[C@@H](O)[C@H](O)[C@H]3N)O[C@@H]2CO)[C@H](N)[C@@H](O)[C@@H]1O | 64.2 |  |  |
